In the NIST ThermoML archive (doi:10.1021/je0601457):

Experiment: xn = mol fraction of the nth substance listed

Cc1cnccn1 [2-methylpyrazine] + O=C=O
Fluid (supercritical or subcritical phases), Linear displacement technique
Settings	mass density [kg/m3]
329.15 K, 13140 kPa, x1 = 0.017	626
329.15 K, 14240 kPa, x1 = 0.017	652
331.05 K, 10450 kPa, x1 = 0.081	785
331.05 K, 10590 kPa, x1 = 0.081	785
331.65 K, 6380 kPa, x1 = 0.624	896
331.65 K, 9900 kPa, x1 = 0.624	901
331.65 K, 13480 kPa, x1 = 0.624	904
331.65 K, 18240 kPa, x1 = 0.624	910
332.35 K, 11210 kPa, x1 = 0.023	375
332.35 K, 12340 kPa, x1 = 0.023	438
332.35 K, 13280 kPa, x1 = 0.023	470
332.35 K, 15340 kPa, x1 = 0.023	519
332.35 K, 16620 kPa, x1 = 0.023	540
332.45 K, 12000 kPa, x1 = 0.122	863
332.45 K, 13550 kPa, x1 = 0.122	881
332.45 K, 15590 kPa, x1 = 0.122	901
333.55 K, 11790 kPa, x1 = 0.033	617
333.55 K, 12720 kPa, x1 = 0.033	679
333.55 K, 13340 kPa, x1 = 0.033	719
333.55 K, 15340 kPa, x1 = 0.033	780
335.65 K, 9480 kPa, x1 = 0.264	822
335.65 K, 10900 kPa, x1 = 0.264	829
335.65 K, 14380 kPa, x1 = 0.264	842
335.65 K, 17720 kPa, x1 = 0.264	852
336.95 K, 12340 kPa, x1 = 0.062	716
336.95 K, 13280 kPa, x1 = 0.062	743
336.95 K, 14520 kPa, x1 = 0.062	775
336.95 K, 16970 kPa, x1 = 0.062	820
337.05 K, 3620 kPa, x1 = 0.857	892
337.05 K, 5550 kPa, x1 = 0.857	893
337.05 K, 9000 kPa, x1 = 0.857	897
337.05 K, 13590 kPa, x1 = 0.857	901
338.55 K, 12240 kPa, x1 = 0.081	752
338.55 K, 13210 kPa, x1 = 0.081	765
338.55 K, 14930 kPa, x1 = 0.081	774
339.25 K, 10930 kPa, x1 = 0.156	847
339.25 K, 13760 kPa, x1 = 0.156	869
339.25 K, 17210 kPa, x1 = 0.156	884
340.45 K, 11280 kPa, x1 = 0.017	346
340.45 K, 11480 kPa, x1 = 0.017	371
340.45 K, 11970 kPa, x1 = 0.017	408
340.45 K, 12790 kPa, x1 = 0.017	455
341.55 K, 14410 kPa, x1 = 0.091	782
341.55 K, 15410 kPa, x1 = 0.091	801
341.55 K, 17340 kPa, x1 = 0.091	828
342.35 K, 11760 kPa, x1 = 0.023	283
342.35 K, 11970 kPa, x1 = 0.023	291
342.35 K, 12340 kPa, x1 = 0.023	300
344.65 K, 12480 kPa, x1 = 0.033	482
344.65 K, 13170 kPa, x1 = 0.033	529
344.65 K, 13860 kPa, x1 = 0.033	578
344.65 K, 14660 kPa, x1 = 0.033	620
344.65 K, 15310 kPa, x1 = 0.033	649
344.65 K, 16550 kPa, x1 = 0.033	683
344.95 K, 11340 kPa, x1 = 0.339	920
344.95 K, 18720 kPa, x1 = 0.339	941
345.05 K, 10790 kPa, x1 = 0.264	808
345.05 K, 12720 kPa, x1 = 0.264	818
345.05 K, 15280 kPa, x1 = 0.264	828
345.05 K, 19170 kPa, x1 = 0.264	842
346.15 K, 14380 kPa, x1 = 0.039	582
346.15 K, 15070 kPa, x1 = 0.039	617
348.65 K, 7590 kPa, x1 = 0.624	879
348.65 K, 11830 kPa, x1 = 0.624	884
348.65 K, 16240 kPa, x1 = 0.624	890
349.45 K, 14100 kPa, x1 = 0.122	787
349.45 K, 15520 kPa, x1 = 0.122	810
349.45 K, 16310 kPa, x1 = 0.122	824
349.45 K, 18790 kPa, x1 = 0.122	852
349.75 K, 14100 kPa, x1 = 0.062	691
349.75 K, 15100 kPa, x1 = 0.062	722
351.15 K, 13970 kPa, x1 = 0.081	778
351.15 K, 14720 kPa, x1 = 0.081	780
351.15 K, 16720 kPa, x1 = 0.081	783
351.35 K, 3760 kPa, x1 = 0.857	878
351.35 K, 7000 kPa, x1 = 0.857	882
351.35 K, 11210 kPa, x1 = 0.857	888
351.35 K, 17340 kPa, x1 = 0.857	893
352.75 K, 14140 kPa, x1 = 0.039	495
352.75 K, 14790 kPa, x1 = 0.039	525
352.75 K, 15410 kPa, x1 = 0.039	543
355.05 K, 11030 kPa, x1 = 0.339	918
355.05 K, 14660 kPa, x1 = 0.339	927
355.05 K, 17280 kPa, x1 = 0.339	939
355.15 K, 13690 kPa, x1 = 0.156	808
355.15 K, 14590 kPa, x1 = 0.156	821
355.15 K, 16930 kPa, x1 = 0.156	843
358.25 K, 15690 kPa, x1 = 0.091	696
358.25 K, 16450 kPa, x1 = 0.091	714
358.25 K, 17690 kPa, x1 = 0.091	743
358.25 K, 19210 kPa, x1 = 0.091	767
358.25 K, 20690 kPa, x1 = 0.091	787
365.65 K, 17000 kPa, x1 = 0.122	746
365.65 K, 18100 kPa, x1 = 0.122	769
365.65 K, 19170 kPa, x1 = 0.122	786
369.15 K, 15970 kPa, x1 = 0.091	633
369.15 K, 16660 kPa, x1 = 0.091	659
369.15 K, 17340 kPa, x1 = 0.091	681
369.15 K, 18100 kPa, x1 = 0.091	701
369.15 K, 19000 kPa, x1 = 0.091	721
371.75 K, 4380 kPa, x1 = 0.857	861
371.75 K, 8450 kPa, x1 = 0.857	865
371.75 K, 15830 kPa, x1 = 0.857	875
371.75 K, 28450 kPa, x1 = 0.857	889
374.25 K, 14030 kPa, x1 = 0.033	346
374.25 K, 14550 kPa, x1 = 0.033	367
374.25 K, 15000 kPa, x1 = 0.033	384
374.25 K, 16240 kPa, x1 = 0.033	425
374.55 K, 17210 kPa, x1 = 0.081	740
374.55 K, 19210 kPa, x1 = 0.081	768
374.75 K, 16100 kPa, x1 = 0.062	592
374.75 K, 16720 kPa, x1 = 0.062	626
374.75 K, 16970 kPa, x1 = 0.062	639
375.55 K, 16790 kPa, x1 = 0.156	765
375.55 K, 18100 kPa, x1 = 0.156	789
375.55 K, 19970 kPa, x1 = 0.156	811
375.75 K, 17000 kPa, x1 = 0.264	758
375.75 K, 20720 kPa, x1 = 0.264	778
375.75 K, 24590 kPa, x1 = 0.264	797
376.35 K, 14860 kPa, x1 = 0.039	367
376.35 K, 15760 kPa, x1 = 0.039	406
376.65 K, 7970 kPa, x1 = 0.624	846
376.65 K, 10970 kPa, x1 = 0.624	852
376.65 K, 14930 kPa, x1 = 0.624	859
376.65 K, 19340 kPa, x1 = 0.624	864
379.45 K, 17410 kPa, x1 = 0.091	598
379.45 K, 20340 kPa, x1 = 0.091	675
379.45 K, 21900 kPa, x1 = 0.091	705
379.45 K, 24210 kPa, x1 = 0.091	731
387.35 K, 15480 kPa, x1 = 0.339	899
387.35 K, 18070 kPa, x1 = 0.339	912
387.35 K, 22790 kPa, x1 = 0.339	933

Liquid, linear displacement
Settings	mass density [kg/m3]
331.05 K, x1 = 0.081	785
331.65 K, x1 = 0.624	892
332.35 K, x1 = 0.023	323
332.45 K, x1 = 0.122	840
333.55 K, x1 = 0.033	574
335.65 K, x1 = 0.264	822
336.95 K, x1 = 0.062	689
337.05 K, x1 = 0.857	888
338.55 K, x1 = 0.081	746
339.25 K, x1 = 0.156	843
341.55 K, x1 = 0.091	731
344.95 K, x1 = 0.339	913
345.05 K, x1 = 0.264	808
346.15 K, x1 = 0.039	462
348.65 K, x1 = 0.624	875
349.45 K, x1 = 0.122	770
349.75 K, x1 = 0.062	660
351.35 K, x1 = 0.857	878
355.05 K, x1 = 0.339	914
355.15 K, x1 = 0.156	799
358.25 K, x1 = 0.091	656
365.65 K, x1 = 0.122	707
371.75 K, x1 = 0.857	858
375.55 K, x1 = 0.156	745
375.75 K, x1 = 0.264	746
376.65 K, x1 = 0.624	845
387.35 K, x1 = 0.339	891
